The values below come from patent publication US11559575B2, “Multi-epitopic peptide compounds and vaccines against leishmaniasis” (INSTITUT DE RECHERCHE POUR LE DEVELOPPEMENT, priority 2018, dated 2023).

“Also recorded” adds a separate entry of the source.

Holding throughout (assay type): binding, human
The subject of assay [1] is HLA supertypes of class I. Nature of the assay: Affinity of epitopes for HLA supertypes of class I. The following applies: Table 1; for Affinity HLA supertype allele of class I: H2B-II core epitopes. The source says:
HLA molecules are highly polymorphous. This is because there exist more than 2500 HLA proteins of class I (HLA-I) and more than 1000 HLA proteins of class II (HLA-II). However, some of these HLA molecules, close in sequence and in spatial conformation, may have epitopes common to the T cells. The grouping of several thousands of HLA molecules is at the present time described in a little more than 20 or so categories, referred to as “HLA supertypes” having epitopes that are very well preserved for each supertype.

The test system of a further assay is HLA alleles of class I. The assay can be described thus: Affinity of epitopes for HLA alleles of class I. The note with it: Table 1; for Affinity HLA alleles of class I: H2B-II core epitopes.
Another assay concerns HLA alleles of class II. Nature of the assay: Affinity of epitopes for HLA alleles of class II. The following applies: Table 1; for Affinity HLA alleles of class II: H2B-II core epitopes.

As to “QMSMSHRTM (Leishmania major) [SEQ ID NO: 49]”, the “Affinity HLA supertype allele of class I” value in assay [1] is reported as “HLA-B*62”. For the same sequence, the “Affinity HLA alleles of class I” value in the assay with HLA alleles of class I is on record as “HLA-B*15:01”. Also, the “Affinity HLA alleles of class II” value in the assay with HLA alleles of class II is “HLA-DRB1*01:01,; also recorded: HLA-DRB4*01:01”.

For the sequence “SLKAINAQM (Leishmania major) [SEQ ID NO: 50]”, the “Affinity HLA supertype allele of class I” value in assay [1] was “HLA-B*62”. Besides, the “Affinity HLA alleles of class I” value with HLA alleles of class I is on record as “HLA-B*15:01”. In the assay on HLA alleles of class II, the “Affinity HLA alleles of class II” value is listed as “HLA-DRB1*04:01,; also recorded: HLA-DRB1*08:02,; also recorded: HLA-DRB1*09:01,; also recorded: HLA-DRB1*11:01,; also recorded: HLA-DRB1*13:02,; also recorded: HLA-DRB4*01:01”.

Turning to “SMSHRTMKI (Leishmania major) [SEQ ID NO: 16]”, the “Affinity for the HLA supertypes of class I” value in assay [1] (H2B-1 epitopes) is given as “HLA-A*02”. Moreover, the “Affinity for the HLA alleles of class I” value in the assay on HLA alleles of class I (H2B-1 epitopes) is “HLA-A*02:03,; also recorded: HLA-A*32:01,; also recorded: HLA-A*02:01”. In the assay with HLA alleles of class II (H2B-1 epitopes), the “Affinity for the HLA alleles of class II” value is listed as “DRB1*07:01,; also recorded: DRB1*13:02”.
